According to patent US20250263390A1, “NOVEL SUBSTITUTED 6,7-DIHYDRO-5H-BENZO[7]ANNULENE COMPOUNDS AND THEIR DERIVATIVES, PROCESSES FOR THEIR PREPARATION AND THERAPEUTIC USES THEREOF” (SANOFI, priority 2022, published 2025):

molecular target: T1, ERα (Homo sapiens, UniProt P03372); test: Estrogen receptor degradation activity: breast cancer cell ERα in cell western assay; assay type: cell-based; details: MCF7 cells, 4 hours, relative to fulvestrant 0.1 μM positive control
T1 construct: host or cells: MCF7
T1 sequence (P03372 1-595): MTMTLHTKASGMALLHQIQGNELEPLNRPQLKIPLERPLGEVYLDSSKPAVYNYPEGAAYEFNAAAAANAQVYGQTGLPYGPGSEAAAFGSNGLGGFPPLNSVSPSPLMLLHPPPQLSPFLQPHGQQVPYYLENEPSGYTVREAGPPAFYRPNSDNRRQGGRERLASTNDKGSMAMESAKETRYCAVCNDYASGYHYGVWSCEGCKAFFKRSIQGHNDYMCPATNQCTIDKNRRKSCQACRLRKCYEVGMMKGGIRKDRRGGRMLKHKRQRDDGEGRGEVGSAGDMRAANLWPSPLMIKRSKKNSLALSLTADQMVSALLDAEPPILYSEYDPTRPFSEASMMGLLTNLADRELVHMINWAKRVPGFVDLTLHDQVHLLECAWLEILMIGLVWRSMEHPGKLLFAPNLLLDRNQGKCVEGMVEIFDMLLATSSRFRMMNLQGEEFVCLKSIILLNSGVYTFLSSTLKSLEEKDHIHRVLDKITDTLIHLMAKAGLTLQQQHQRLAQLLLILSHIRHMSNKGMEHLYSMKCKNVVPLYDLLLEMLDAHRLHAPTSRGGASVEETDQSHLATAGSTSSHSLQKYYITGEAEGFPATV
Protocol: Test: Estrogen Receptor Degradation Activity Said test involves measuring the in vitro degradation activity of the compounds of the Table 1a. The measurements of the degradation activities were made using a breast cancer cell ERα in cell western assay as described hereunder. MCF7 cells (ATCC) were seeded in 384 wells microplate (collagen coated) at a concentration of 10000 cells/30 μL per well in red phenol free MEM alpha medium (invitrogen) containing 5% charcoal dextran striped FBS. The following day, 9 points serial 1:5 dilution of each compound was added to the cells in 2.5p L at final concentrations ranging from 0.3-0.0000018 μM (in table 2), or 0.1 μM for fulvestrant (using as positive control). At 4 hours post compound addition the cells were fixed by adding 25 μL of formalin (final concentration 5% formalin containing 0.1% triton) for 10 minutes at room temperature and then washed twice with PBS. Then, 50 μL of LI-COR blocking buffer containing 0.1% Triton was added to plate for 30 minutes at room temperature. LI-COR blocking buffer was removed and cells were incubated overnight at cold room with 50 μL anti-ER rabbit monoclonal antibody (Thermo scientific MA1-39540) diluted at 1:1000 in LI-COR blocking buffer containing 0.1% tween-20. Wells which were treated with blocking buffer but no antibody were used as background control. Wells were washed twice with PBS (0.1% tween-20) and incubated at 37° C. for 60 minutes in LI-COR (0.1% tween-20) containing goat anti-rabbit antibody Alexa 488 (1:1000) and Syto-64 a DNA dye (2 μM final concentration). Cells were then washed 3 times in PBS and scanned in ACUMEN explorer (TTP-Labtech). Integrated intensities in the green fluorescence and red fluorescence were measured to determine the levels of ERα and DNA respectively. The degradation activity with respect to estrogen receptors in this test is given by the concentration which degrades 50% of the estrogen receptor (or IC50) in nM. The % of ERα levels decrease were determined as follows: % inhibition=100*(1−(sample−fulvestrant: DMSO−fulvestrant)).

Compound | % Degradation At 0.3 μM [%]
Cc1ccc(C2=C(c3ccc(CC4CN(CCCF)C4)cc3)c3ccc(C(=O)O)cc3CCC2)cc1C(F)(F)F [Compound 29, 9-(4-((1-(3-fluoropropyl)azetidin-3-yl)methyl)phenyl)-8-(4-methyl-3-(trifluoromethyl)phenyl)-6,7-dihydro-5H-benzo[7]annulene-3-carboxylic acid] | 93
CCc1cc(C(F)(F)F)ccc1C1=C(c2ccc(CC3CN(CCCF)C3)cc2)c2ccc(C(=O)O)cc2CCC1 [Compound 69, 8-(2-ethyl-4-(trifluoromethyl)phenyl)-9-(4-((1-(3-fluoropropyl)azetidin-3-yl)methyl)phenyl)-6,7-dihydro-5H-benzo[7]annulene-3-carboxylic acid] | 91
Cc1cccc(Cl)c1C1=C(c2ccc(CC3CN(CCCF)C3)cc2)c2ccc(C(=O)O)cc2CCC1.Cl [Compound 40, 8-(2-chloro-6-methylphenyl)-9-(4-((1-(3-fluoropropyl)azetidin-3-yl)methyl)phenyl)-6,7-dihydro-5H-benzo[7]annulene-3-carboxylic acid, hydrochloride] | 91
COc1cccc(OC)c1C1=C(c2ccc(CC3CN(CCCF)C3)cc2)c2ccc(C(=O)O)cc2CCC1.Cl [Compound 51, 8-(2,6-dimethoxyphenyl)-9-(4-((1-(3-fluoropropyl)azetidin-3-yl)methyl)phenyl)-6,7-dihydro-5H-benzo[7]annulene-3-carboxylic acid, hydrochloride] | 92
CCc1c(F)cccc1C1=C(c2ccc(CC3CN(CCCF)C3)cc2)c2ccc(C(=O)O)cc2CCC1 [Compound 37, 8-(2-ethyl-3-fluorophenyl)-9-(4-((1-(3-fluoropropyl)azetidin-3-yl)methyl)phenyl)-6,7-dihydro-5H-benzo[7]annulene-3-carboxylic acid] | 94
CCc1cccc(C2=C(c3ccc(CC4CN(CCCF)C4)cc3)c3ccc(C(=O)O)cc3CCC2)c1C(F)(F)F [Compound 68, 8-(3-ethyl-2-(trifluoromethyl)phenyl)-9-(4-((1-(3-fluoropropyl)azetidin-3-yl)methyl)phenyl)-6,7-dihydro-5H-benzo[7]annulene-3-carboxylic acid] | 92
C=Cc1c(F)cccc1C1=C(c2ccc(CC3CN(CCCF)C3)cc2)c2ccc(C(=O)O)cc2CCC1 [Compound 36, 8-(3-fluoro-2-vinylphenyl)-9-(4-((1-(3-fluoropropyl)azetidin-3-yl)methyl)phenyl)-6,7-dihydro-5H-benzo[7]annulene-3-carboxylic acid] | 92
O=C(O)c1ccc2c(c1)CCCC(c1ccc(C(F)(F)F)cc1C(F)(F)F)=C2c1ccc(CC2CN(CCCF)C2)cc1 [Compound 39, 8-(2,4-bis(trifluoromethyl)phenyl)-9-(4-((1-(3-fluoropropyl)azetidin-3-yl)methyl)phenyl)-6,7-dihydro-5H-benzo[7]annulene-3-carboxylic acid] | 95
COc1ccc(C2=C(c3ccc(CC4CN(CCCF)C4)cc3)c3ccc(C(=O)O)cc3CCC2)cc1C(F)(F)F.Cl [Compound 17, 9-(4-((1-(3-fluoropropyl)azetidin-3-yl)methyl)phenyl)-8-(4-methoxy-3-(trifluoromethyl)phenyl)-6,7-dihydro-5H-benzo[7]annulene-3-carboxylic acid, hydrochloride] | 92
CC(F)(F)c1cc(F)ccc1C1=C(c2ccc(CC3CN(CCCF)C3)cc2)c2ccc(C(=O)O)cc2CCC1 [Compound 62, 8-(2-(1,1-difluoroethyl)-4-fluorophenyl)-9-(4-((1-(3-fluoropropyl)azetidin-3-yl)methyl)phenyl)-6,7-dihydro-5H-benzo[7]annulene-3-carboxylic acid] | 95
CC1(C)CCC(C2=C(c3ncc(CC4CN(CCC(F)F)C4)cc3F)c3ccc(C(=O)O)cc3CCC2)CC1 [Compound 13, 9-(5-((1-(3,3-difluoropropyl)azetidin-3-yl)methyl)-3-fluoropyridin-2-yl)-8-(4,4-dimethylcyclohexyl)-6,7-dihydro-5H-benzo[7]annulene-3-carboxylic acid] | 64
O=C(O)c1ccc2c(c1)CCCC(C1CC(CO)C1)=C2c1ccc(CC2CN(CCCF)C2)cc1 (centres unmarked) [Compound 21, 9-(4-((1-(3-fluoropropyl)azetidin-3-yl)methyl)phenyl)-8-(3-(hydroxymethyl)cyclobutyl)-6,7-dihydro-5H-benzo[7]annulene-3-carboxylic acid] | 100
Cc1ccc(C(F)F)c(C2=C(c3ccc(CC4CN(CCCF)C4)cc3)c3ccc(C(=O)O)cc3CCC2)c1 [Compound 23, 8-(2-(difluoromethyl)-5-methylphenyl)-9-(4-((1-(3-fluoropropyl)azetidin-3-yl)methyl)phenyl)-6,7-dihydro-5H-benzo[7]annulene-3-carboxylic acid] | 91
Cc1cc(C2=C(c3ccc(CC4CN(CCCF)C4)cc3)c3ccc(C(=O)O)cc3CCC2)ccc1C(F)(F)F [Compound 26, 9-(4-((1-(3-fluoropropyl)azetidin-3-yl)methyl)phenyl)-8-(3-methyl-4-(trifluoromethyl)phenyl)-6,7-dihydro-5H-benzo[7]annulene-3-carboxylic acid] | 93
COc1cccc(C2=C(c3ccc(CC4CN(CCCF)C4)cc3)c3ccc(C(=O)O)cc3CCC2)c1OC [Compound 46, 8-(2,3-dimethoxyphenyl)-9-(4-((1-(3-fluoropropyl)azetidin-3-yl)methyl)phenyl)-6,7-dihydro-5H-benzo[7]annulene-3-carboxylic acid] | 93
COc1c(C2=C(c3ccc(CC4CN(CCCF)C4)cc3)c3ccc(C(=O)O)cc3CCC2)cccc1C(F)(F)F [Compound 4, 9-(4-((1-(3-fluoropropyl)azetidin-3-yl)methyl)phenyl)-8-(2-methoxy-3-(trifluoromethyl)phenyl)-6,7-dihydro-5H-benzo[7]annulene-3-carboxylic acid] | 83
COc1ccc(C(F)(F)F)c(C2=C(c3ccc(CC4CN(CCCF)C4)cc3)c3ccc(C(=O)O)cc3CCC2)c1 [Compound 35, 9-(4-((1-(3-fluoropropyl)azetidin-3-yl)methyl)phenyl)-8-(5-methoxy-2-(trifluoromethyl)phenyl)-6,7-dihydro-5H-benzo[7]annulene-3-carboxylic acid] | 91
O=C(O)c1ccc2c(c1)CCCC(c1cccc3c1OCCC3)=C2c1ccc(CC2CN(CCCF)C2)cc1 [Compound 9, 8-(chroman-8-yl)-9-(4-((1-(3-fluoropropyl)azetidin-3-yl)methyl)phenyl)-6,7-dihydro-5H-benzo[7]annulene-3-carboxylic acid] | 88
Cc1ccc(C(F)(F)F)c(C2=C(c3ccc(CC4CN(CCCF)C4)cc3)c3ccc(C(=O)O)cc3CCC2)c1.Cl [Compound 20, 9-(4-((1-(3-fluoropropyl)azetidin-3-yl)methyl)phenyl)-8-(5-methyl-2-(trifluoromethyl)phenyl)-6,7-dihydro-5H-benzo[7]annulene-3-carboxylic acid, hydrochloride] | 91
CCc1ccc(C2=C(c3ccc(CC4CN(CCCF)C4)cc3)c3ccc(C(=O)O)cc3CCC2)c(C(F)(F)F)c1 [Compound 70, 8-(4-ethyl-2-(trifluoromethyl)phenyl)-9-(4-((1-(3-fluoropropyl)azetidin-3-yl)methyl)phenyl)-6,7-dihydro-5H-benzo[7]annulene-3-carboxylic acid] | 92
